Article PMC12197660 (Viruses, 2025)
≈ marks a conversion by molar mass, not a printed value. Like-named read-outs stand apart in the source and are kept apart here.

Columns and labels:
[1] = Radiolabeled metabolism and excretion in rats; assay type: in vivo
[2] = Plasma stability, human plasma; assay type: in vitro ADME
[3] = Plasma and PBMC PK after IV RDV 10 mg/kg (Table 2); assay type: in vivo, cynomolgus monkeys; settings: cynomolgus monkey, in vivo, iv, 10 mg/kg
[4] = test system: hydrolases (CatA, CES-1/2, HINT1); test: Enzyme hydrolysis phenotype; assay type: in vitro ADME
[5] = Plasma stability, cynomolgus monkey plasma; assay type: in vitro ADME
[6] = test system: OATP1B1/3, P-gp, BCRP, ENT1/2, CNT3; test: Transporter substrate assessment; assay type: in vitro ADME, human
[7] = Plasma stability (Table 1, across species); assay type: in vitro ADME, mouse, rat, dog, monkey, and human
plasma protein = test: Plasma protein binding; assay type: in vitro ADME, mouse, rat, dog, monkey, and human
Solubility (PBS) = assay type: physicochemical; settings: aqueous buffer
[8] = Hepatic S9 fraction stability; assay type: in vitro ADME, rat, dog, monkey, and human
[9] = cited from earlier work
[10] = Permeability (MDCK A-to-B); assay type: in vitro ADME, canine; settings: dog, MDCK-MDR1, pH 7.4
LogD = assay type: physicochemical
[11] = QWBA tissue distribution of radioactivity; assay type: in vivo; settings: oral [14C]ODV 200 mg/kg, rats
[12] = Oral ODV PK in portal-vein-cannulated monkey; assay type: in vivo, cynomolgus monkey
[13] = Intestinal (GI) S9 fraction stability; assay type: in vitro ADME, rat, dog, monkey, and human
[14] = clinical ODV 350 mg oral tablet; cited from earlier work
[15] = ODV oral 11.6 mg/kg (9.4 mg-eq/kg), mean ± SD, N = 3, cited from earlier work
CatA = molecular target: T1, CatA (Homo sapiens, UniProt P10619); test: Enzyme hydrolysis phenotype, fraction metabolized by CatA; assay type: in vitro ADME
T1 sequence (P10619 29-480): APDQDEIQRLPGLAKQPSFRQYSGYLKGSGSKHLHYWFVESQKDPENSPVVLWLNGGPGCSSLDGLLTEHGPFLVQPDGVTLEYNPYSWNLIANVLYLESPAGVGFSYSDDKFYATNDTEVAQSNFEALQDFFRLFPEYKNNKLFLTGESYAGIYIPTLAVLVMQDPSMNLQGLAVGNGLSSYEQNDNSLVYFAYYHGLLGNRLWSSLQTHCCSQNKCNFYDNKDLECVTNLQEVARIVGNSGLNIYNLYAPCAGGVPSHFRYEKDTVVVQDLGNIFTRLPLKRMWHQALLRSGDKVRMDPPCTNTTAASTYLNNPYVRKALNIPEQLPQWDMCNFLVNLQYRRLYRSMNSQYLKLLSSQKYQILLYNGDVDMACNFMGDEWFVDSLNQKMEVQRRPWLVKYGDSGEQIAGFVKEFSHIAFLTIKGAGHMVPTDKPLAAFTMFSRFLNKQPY

CES-1 = molecular target: T2, CES-1 (Homo sapiens, UniProt P23141); test: Enzyme hydrolysis phenotype, fraction metabolized by CES-1; assay type: in vitro ADME
T2 sequence (P23141 18-567): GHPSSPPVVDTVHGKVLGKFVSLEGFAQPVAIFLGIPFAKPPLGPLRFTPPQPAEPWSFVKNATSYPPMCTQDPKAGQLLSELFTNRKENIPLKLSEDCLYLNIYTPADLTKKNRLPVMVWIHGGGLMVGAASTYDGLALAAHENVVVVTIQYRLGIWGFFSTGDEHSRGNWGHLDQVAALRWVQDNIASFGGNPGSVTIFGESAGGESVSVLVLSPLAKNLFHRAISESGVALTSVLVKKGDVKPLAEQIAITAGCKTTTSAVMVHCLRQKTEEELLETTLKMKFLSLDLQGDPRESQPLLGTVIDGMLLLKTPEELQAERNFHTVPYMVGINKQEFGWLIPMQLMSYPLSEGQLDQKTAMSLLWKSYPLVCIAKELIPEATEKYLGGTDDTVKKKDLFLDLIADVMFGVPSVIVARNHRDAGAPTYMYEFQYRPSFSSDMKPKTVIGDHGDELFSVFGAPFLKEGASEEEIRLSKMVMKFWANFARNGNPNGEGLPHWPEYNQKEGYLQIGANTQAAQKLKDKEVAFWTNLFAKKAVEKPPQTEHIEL

[16] = cynomolgus monkey, in vivo, iv, 10 mg/kg, 24 h
[17] = test system: OATP1B1/3, P-gp, BCRP, ENT1/2, CNT3; settings: cited from earlier work
[18] = cited from earlier work; remark: listed apart in the source
[19] = in vivo, cyno; cited from earlier work
[20] = range over mouse, rat, dog, monkey, and human
[21] = assessed in rat, dog, monkey, and human
[22] = male, Sprague Dawley, rat, in vivo, iv

## C[C@H](NP(=O)(O)OC[C@H]1O[C@@](C#N)(c2ccc3c(N)ncnn23)[C@H](O)[C@@H]1O)C(=O)O [GS-704277]
[1]; analyte after IV RDV, rats
  Share of radioactivity in AUC-pooled plasma: ~20%
[2]; human plasma, 2 µM, 240 min incubation
  Stability in plasma: stable
[3]; analyte in plasma after IV RDV 10 mg/kg 30-min infusion, mean ± SD, N = 3, read-out: T1/2 in plasma (converted)
  half-life: 0.56 ± 0.01 h
[4]
  Enzyme hydrolysis phenotype: HINT1
[5]; cynomolgus monkey plasma, 2 µM, 240 min incubation
  Stability in plasma: stable
[6]; human
  Transporter substrate: OATP1B1/3
[7]; assessed in monkey and human
  Plasma stability: Stable ^d
Plasma protein; [20]
  Plasma protein binding (% free): 95–100 % free

## CC(C)C(=O)OC[C@H]1O[C@@](C#N)(c2ccc3c(N)ncnn23)[C@H](O)[C@@H]1O [ODV, obeldesivir]
[1]; oral ODV, rats
  Fecal excretion, of administered dose, mean: 52%
  Total mean [14C] dose recovery: greater than 90%
  Urinary excretion, mean: 33%
Solubility (PBS); PBS, read-out: Solubility (PBS)
  solubility: ~1000 µg/mL (≈ 2770 µM)
[8]; Hep S9 from cynomolgus monkeys and humans, 2 µM
  Stability in Hep S9 fractions: poor
[8]; [21]
  S9 Stability, Hepatic: Unstable
[9]; oral ODV, humans
  Fecal excretion, of administered dose, mean: 32%
  Total mean [14C] dose recovery: greater than 90%
  Urinary excretion, mean: 58%
[10]; A-to-B, read-out: Permeability (MDCK A-to-B)
  Papp A→B at 120 min: 1.8 ×10⁻⁶ cm/s
LogD
  logD: 0.9
[11]
  Persistence of radioactivity in tissues: little [^14C]ODV-related radioactivity was detected after 24 h
  Time by which broad distribution of drug-associated radioactivity was observed: ≤ 0.25 h
[4]
  Enzyme hydrolysis phenotype: CES-1/2
[6]
  Transporter substrate: BCRP/P-gp
  Transporter substrate (text): substrate for both BCRP and P-gp transporters
[7]; assessed in mouse, rat, dog, monkey, and human
  Plasma stability: Unstable (stable in dog)
[12]; analyte after oral ODV 14.4 mg/kg, single monkey
  Time of plasma Cmax in both portal and systemic circulation: 0.25 h
[12]; portal vs systemic plasma ODV exposures, oral ODV 14.4 mg/kg
  Hepatic extraction of intact ODV absorbed: near complete hepatic extraction
[13]; PMSF-free GI S9 from cynomolgus monkeys and humans, 2 µM
  Stability in GI S9 fractions: poor
[13]; [21]
  S9 Stability, Intestinal: Unstable
Plasma protein; [20]
  Plasma protein binding (% free): 56–76 % free
[14]
  Oral bioavailability of GS-441524, estimated: 41% to 50
[15]
  Plasma GS-441524 AUC0–24h: 21,600 ± 11,000 nM·h
  Plasma GS-441524 T1/2: 2.62 ± 0.55 h
  Plasma GS-441524 Tmax: 1.67 ± 0.58 h
[15]; read-out: Plasma GS-441524 Cmax
  Cmax: 7.57 ± 6.07 µM

## CCC(CC)COC(=O)[C@H](C)N[P@](=O)(OC[C@H]1O[C@@](C#N)(c2ccc3c(N)ncnn23)[C@H](O)[C@@H]1O)Oc1ccccc1 [RDV, remdesivir, reference compound]
CatA
  Enzyme hydrolysis phenotype (fm), CatA: 10%
[1]; [22]
  Fecal excretion, of administered dose: approximately 25%
  Total mean [14C] dose recovery: greater than 90%
  Urinary excretion, mean: 61%
Solubility (PBS)
  solubility: 40.1 µg/mL (≈ 66.5 µM)
other
  Predicted human hepatic extraction: > 0.9
[8]
  S9 Stability, Hepatic: Unstable
[2]; human, plasma
  half-life at 2 µM: 1.3 h
[9]; in vivo, iv
  Fecal excretion, of administered dose: ~18%
  Total mean [14C] dose recovery: greater than 90%
  Urinary excretion, mean: 74%
[3]
  Vd: 0.504 ± 0.175 L/kg
  clearance: 40 mL/min/kg
CES-1
  Enzyme hydrolysis phenotype (fm), CES-1: 80%
[10]
  Papp A→B at 120 min: 1.32 ×10⁻⁶ cm/s
LogD
  logD: 2.5
[16]
  Lung GS-443902 C24h: 1.39 ± 0.15 nmol/g
  PBMC GS-443902 C24h: 31.0 ± 11.8 µM
[17]
  Transporter substrate (text): substrate for both OATP1B1 and P-gp
[5]; cynomolgus monkey, plasma
  half-life at 2 µM: 6.42 h
[6]; human
  Transporter substrate: OATP1B1/P-gp
[7]
  Plasma stability: Moderately Stable (unstable in mouse, rat)
[18]
  Stability in hepatic S9: unstable
Plasma protein; plasma
  Plasma protein binding (% free): 6–14 % free
[19]
  Oral bioavailability: < 1%
